Patent US8466188B2, “Use of spiro-oxindole compounds as therapeutic agents” (Xenon Pharmaceuticals Inc., priority 2006, dated 2013)

Row | Compound | melting point
1 | O=C1N(Cc2ccc(=O)[nH]c2)c2ccccc2C12COc1cc3c(cc12)OCO3 (stereo not shown) [Example 10.82, 1′-[(6-oxo-1,6-dihydropyridin-3-yl)methyl]spiro[furo[2,3-f][1,3]benzodioxole-7,3′-indol]-2′(1′H)-one] | 247 to 250 °C
2 | COc1cccc2c1C1(COc3cc4c(cc31)OCO4)C(=O)N2Cc1ccc(C(F)(F)F)o1 (stereo not shown) [Example 1.53, 4′-methoxy-1′{[5-(trifluoromethyl)-2-furyl]methyl}spiro[furo[2,3-f][1,3]benzodioxole-7,3′-indol]-2′(1′H)-one] | 149 to 153 °C
3 | O=C1N(Cc2nnc(Cl)s2)c2ccccc2C12COc1cc3c(cc12)OCO3 (stereo not shown) [Example 10.85, 1′-[(5-chloro-1,3,4-thiadiazol-2-yl)methyl]spiro[furo[2,3-f][1,3]benzodioxole-7,3′-indol]-2′(1′H)-one] | 194 to 197 °C
4 | CCCN1C(=O)C2(COc3cc4c(cc32)OCO4)c2ccccc21 (stereo not shown) [Example 10.40, 1′-Propylspiro[furo[2,3-f][1,3]benzodioxole-7,3′-indol]-2′(1′H)-one] | 158 to 160 °C
5 | Cl.O=C1N(Cc2ccc(N3CCCC3)nc2)c2ccccc2C12COc1cc3c(cc12)OCO3 (stereo not shown) | 160 to 165 °C
6 | Cl.O=C1N(CCC2CCN(C3CCCC3)CC2)c2ccccc2C12COc1cc3c(cc12)OCO3 (stereo not shown) | 153 to 155 °C
7 | CC(C)c1nc(CN2C(=O)C3(COc4cc5c(cc43)OCO5)c3ccccc32)co1 (stereo not shown) [Example 10.58, 1′-[(2-isopropyl-1,3-oxazol-4-yl)methyl]spiro[furo[2,3-f][1,3]benzodioxole-7,3′-indol]-2′(1′H)-one] | 118 to 120 °C
8 | CCCCCN1C(=O)C2(COc3cc4c(cc32)OCO4)c2c(C(=O)Nc3cccc(OC)c3)cccc21 (stereo not shown) [Example 29.1, N-(3-methoxyphenyl)-2′-oxo-1′-pentyl-1′,2′-dihydrospiro[furo[2,3-f][1,3]benzodioxole-7,3′-indole]-4′-carboxamide] | 173 to 175 °C
9 | CN1C(C)(C)CC(O)(CN2C(=O)C3(COc4cc5c(cc43)OCO5)c3ccccc32)CC1(C)C (stereo not shown) [Example 10.63, 1′-[(4-hydroxy-1,2,2,6,6-pentamethylpiperidin-4-yl)methyl]spiro[furo[2,3-f][1,3]benzodioxole-7,3′-indol]-2′(1′H)-one] | 210 to 214 °C
10 | O=C(CN1C(=O)C2(COc3cc(F)c(F)cc32)c2ccccc21)Nc1ccccc1F (stereo not shown) [Example 3.9, 2-(5,6-difluoro-2′-oxospiro[1-benzofuran-3,3′-indol]-1′(2′H)-yl)-N-(2-fluorophenyl)acetamide] | 97 to 100 °C
11 | COc1ccc(CN2C(=O)C3(COc4cc5c(cc43)CCO5)c3ccccc32)cc1 (stereo not shown) [Example 10.46, 1′-(4-methoxybenzyl)-5,6-dihydrospiro[benzo[1,2-b:5,4-b′]difuran-3,3′-indol]-2′(1′H)-one] | 120 to 121 °C
12 | Cl.O=C1N(Cc2ccccn2)c2ccccc2C12COc1cc3c(cc12)CCO3 (stereo not shown) | 208 to 210 °C
13 | Cl.O=C1N(Cc2ccc(C(F)(F)F)o2)c2ccccc2C12COc1ccc(-c3cccnc3)cc12 (stereo not shown) | 98 to 100 °C
14 | Cc1ccc(CN2C(=O)C3(COc4cc5c(cc43)OCO5)c3ccccc32)o1 (stereo not shown) [Example 10.65, 1′-[(5-methyl-2-furyl)methyl]spiro[furo[2,3-f][1,3]benzodioxole-7,3′-indol]-2′(1′H)-one] | 117 to 119 °C
15 | O=C(CN1C(=O)C2(COc3cc4c(cc32)CCO4)c2c(Cl)cccc21)Nc1ccccc1F (stereo not shown) [Example 3.6, 2-(4′-chloro-2′-oxo-5,6-dihydrospiro[benzo[1,2-b:5,4-b′]difuran-3,3′-indol]-1′(2′H)-yl)-N-(2-fluorophenyl)acetamide] | 243 to 245 °C
16 | COc1ccc(CN2C(=O)C3(COc4cc(OC(F)(F)F)ccc43)c3ccccc32)cc1 (stereo not shown) [Example 10.91, 1′-(4-methoxybenzyl)-6-(trifluoromethoxy)spiro[1-benzofuran-3,3′-indol]-2′(1′H)-one] | 82 to 84 °C
17 | O=C(CN1C(=O)C2(COc3cc4c(cc32)CCO4)c2ccccc21)Nc1ccccc1F (stereo not shown) [Example 3.13, N-(2-fluorophenyl)-2-(2′-oxo-5,6-dihydrospiro[benzo[1,2-b:5,4-b′]difuran-3,3′-indol]-1′(2′H)-yl)acetamide] | 210 to 212 °C
18 | O=C1N(Cc2ccc(-c3cccc(Cl)c3)o2)c2ccccc2C12COc1cc3c(cc12)OCO3 (stereo not shown) [Example 10.56, 1′-{[5-(3-chlorophenyl)-2-furyl]methyl}spiro[furo[2,3-f][1,3]benzodioxole-7,3′-indol]-2′(1′H)-one] | 205 to 207 °C
19 | CC(C)N1CCC(CCN2C(=O)C3(COc4cc5c(cc43)OCO5)c3ccccc32)CC1.Cl (stereo not shown) | 155 to 156 °C
20 | COC(=O)c1ccccc1CN1C(=O)C2(COc3cc4c(cc32)OCO4)c2ccccc21 (stereo not shown) [Example 1.4, methyl 2-[(2′-oxospiro[furo[2,3-f][1,3]benzodioxole-7,3′-indol]-1′(2′H)-yl)methyl]benzoate] | 166 to 167 °C
21 | Cl.O=C1N(Cc2ccccn2)c2ccccc2C12COc1cc(OC(F)(F)F)ccc12 (stereo not shown) | 150 to 152 °C
22 | CC(C)N1CCC(CN2C(=O)C3(COc4cc5c(cc43)OCO5)c3cccc(F)c32)CC1.Cl (stereo not shown) | 157 to 160 °C

Row | Compound | melting point
23 | Cl.O=C1N(CCC2CCN(C3CCOCC3)CC2)c2ccccc2C12COc1cc3c(cc12)OCO3 (stereo not shown) | 168 to 170 °C
24 | CS(=O)(=O)N1C(=O)C2(COc3cc4c(cc32)OCO4)c2ccccc21 (stereo not shown) [Example 10.93, 1′-(methylsulfonyl)spiro[furo[2,3-f][1,3]benzodioxole-7,3′-indol]-2′(1′H)-one] | 215 to 217 °C
25 | CC(C)(C)OC(=O)N1CCC(CN2C(=O)C3(COc4cc5c(cc43)C(C)(C)CO5)c3ccccc32)CC1 (stereo not shown) [Example 10.18, tert-butyl 4-[(5,5-dimethyl-2′-oxo-5,6-dihydrospiro[benzo[1,2-b:5,4-b′]difuran-3,3′-indol]-1′(2′H)-yl)methyl]piperidine-1-carboxylate] | 65 to 75 °C
26 | O=C1N(CC2CCCCC2)c2ccccc2C12COc1cc3c(cc12)OCO3 (stereo not shown) [Example 10.92, 1′-(cyclohexylmethyl)spiro[furo[2,3-f][1,3]benzodioxole-7,3′-indol]-2′(1′H)-one] | 153 to 154 °C
27 | CC(C)(C)OC(=O)N1CCC(CCN2C(=O)C3(COc4cc5c(cc43)OCO5)c3ccccc32)CC1 (stereo not shown) [Example 10.96, tert-butyl 4-[2-(2′-oxospiro[furo[2,3-f][1,3]benzodioxole-7,3′-indol]-1′(2′H)-yl)ethyl]piperidine-1-carboxylate] | 173 to 175 °C
28 | O=C1Nc2cccc(-c3ccoc3)c2C12COc1cc3c(cc12)OCO3 (stereo not shown) [Example 4.4, 4′-(3-furyl)spiro[furo[2,3-f][1,3]benzodioxole-7,3′-indol]-2′(1′H)-one] | 270 to 272 °C
29 | CC1(C)Cc2cc3c(cc2O1)OCC31C(=O)N(CC(=O)Nc2ccccc2F)c2cccc(-c3cncnc3)c21 (stereo not shown) [Example 4.3, 2-(6,6-dimethyl-2′-oxo-4′-pyrimidin-5-yl-5,6-dihydrospiro[benzo[1,2-b:5,4-b′]difuran-3,3′-indol]-1′(2′H)-yl)-N-(2-fluorophenyl)acetamide] | > 250 °C
30 | Cl.O=C1N(CCN2CCCCC2)c2ccccc2C12COc1cc3c(cc12)OCO3 (stereo not shown) | > 240 °C
31 | CCCCCN1C(=O)C2(COc3cc(F)c(Cl)cc32)c2ccccc21 (stereo not shown) [Example 1.15, 5-chloro-6-fluoro-1′-pentylspiro[1-benzofuran-3,3′-indol]-2′(1′H)-one] | 74 to 76 °C
32 | O=C1N(Cc2ccc(C(F)(F)F)o2)c2cccc(-c3cncnc3)c2C12COc1cc3c(cc12)CCO3 (stereo not shown) [Example 4.14, 4′-pyrimidin-5-yl-1′-{[5-(trifluoromethyl)-2-furyl]methyl}-5,6-dihydrospiro[benzo[1,2-b:5,4-b′]difuran-3,3′-indol]-2′(1′H)-one] | 263 to 266 °C
33 | O=C1N(Cc2ccc(Cl)s2)c2ccccc2C12COc1cc3c(cc12)OCO3 (stereo not shown) [Example 10.67, 1′-[(5-chloro-2-thienyl)methyl]spiro[furo[2,3-f][1,3]benzodioxole-7,3′-indol]-2′(1′H)-one] | 145 to 146 °C
34 | O=C1N(Cc2ccc(C(F)(F)F)o2)c2ccccc2C12COc1cc(OC(F)(F)F)ccc12 (stereo not shown) [Example 10.90, 6-(trifluoromethoxy)-1′-{[5-(trifluoromethyl)-2-furyl]methyl}spiro[1-benzofuran-3,3′-indol]-2′(1′H)-one] | 78 to 80 °C
35 | O=C1N(Cc2ccc(F)cc2Cl)c2ccccc2C12COc1cc3c(cc12)OCO3 (stereo not shown) [Example 10.30, 1′-(2-chloro-4-fluorobenzyl)spiro[furo[2,3-f][1,3]benzodioxole-7,3′-indol]-2′(1′H)-one] | 174 to 175 °C
36 | Cl.O=C1N(CCC2CCN(C3CCC3)CC2)c2ccccc2C12COc1cc3c(cc12)OCO3 (stereo not shown) | 158 to 160 °C
37 | Cl.O=C1N(Cc2ccc(N3CCOCC3)nc2)c2ccccc2C12COc1cc3c(cc12)OCO3 (stereo not shown) | 185 to 200 °C
38 | CN1C(=O)C2(COc3cc4c(cc32)OCO4)c2ccccc21 (stereo not shown) [Example 10.39, 1′-methylspiro[furo[2,3-f][1,3]benzodioxole-7,3′-indol]-2′(1′H)-one] | 142 to 144 °C
39 | CC1(C)COc2cc3c(cc21)C1(CO3)C(=O)Nc2ccccc21 (stereo not shown) [Example 1.21, 5,5-dimethyl-5,6-dihydrospiro[benzo[1,2-b:5,4-b′]difuran-3,3′-indol]-2′(1′H)-one] | 95 to 100 °C
40 | Cl.O=C1N(Cc2cccnc2)c2ccccc2C12COc1cc(OC(F)(F)F)ccc12 (stereo not shown) | 151 to 153 °C
41 | O=C1N(Cc2ccc(C(F)(F)F)o2)c2ccccc2C12COc1ccc(Br)cc12 (stereo not shown) [Example 1.33, 5-bromo-1′-{[5-(trifluoromethyl)-2-furyl]methyl}spiro[1-benzofuran-3,3′-indol]-2′(1′H)-one] | 143 to 145 °C
42 | CC1(C)COc2cc3c(cc21)C1(CO3)C(=O)N(Cc2cccnc2)c2ccccc21.Cl (stereo not shown) | 124 to 126 °C
43 | O=C1N(Cc2nc3cc(F)ccc3[nH]2)c2ccccc2C12COc1cc3c(cc12)OCO3 (stereo not shown) [Example 53, 1′-[(5-fluoro-1H-benzimidazol-2-yl)methyl]spiro[furo[2,3-f][1,3]benzodioxole-7,3′-indol]-2′(1′H)-one] | 138 to 142 °C
